The source of these data is patent US20250120967A1, “TYROSINE KINASES INHIBITORS AND USES THEREOF” (GREAT NOVEL THERAPEUTICS BIOTECH & MEDICALS CORPORATION, priority 2023, published 2025).

The structures appear in SMILES notation.

What all share (test): Tyrosine kinase inhibition assay
What all share (format): biochemical

The target of one assay is AKT1 (PKB alpha) (Homo sapiens, UniProt P31749). To be noted: single concentration 1.0 μM, read-out: percent inhibition. The procedure, abridged:
(§1)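 Peptide/kinase mixtures and ATP (apparent Km) are combined in 50 mM HEPES pH 7.5 kinase buffer with 10 mM MgCl2, 1 mM EGTA and 0.01% BRIJ-35, compound at 1.0 μM in 1% DMSO. Development reagent is then added and percent inhibition calculated.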

In a further assay the target is JAK1 (Homo sapiens, UniProt P23458). To be noted: single concentration 1.0 μM, read-out: percent inhibition. Put shortly:
as §1

The target in assay [1] is PIK3CD/PIK3R1 (p110 delta/p85 alpha) (Homo sapiens, UniProt O00329). To be noted: single concentration 1.0 μM, read-out: percent inhibition. The procedure, abridged: as §1
PIK3CD/PIK3R1 (p110 delta/p85 alpha), sequence (O00329 whole entry): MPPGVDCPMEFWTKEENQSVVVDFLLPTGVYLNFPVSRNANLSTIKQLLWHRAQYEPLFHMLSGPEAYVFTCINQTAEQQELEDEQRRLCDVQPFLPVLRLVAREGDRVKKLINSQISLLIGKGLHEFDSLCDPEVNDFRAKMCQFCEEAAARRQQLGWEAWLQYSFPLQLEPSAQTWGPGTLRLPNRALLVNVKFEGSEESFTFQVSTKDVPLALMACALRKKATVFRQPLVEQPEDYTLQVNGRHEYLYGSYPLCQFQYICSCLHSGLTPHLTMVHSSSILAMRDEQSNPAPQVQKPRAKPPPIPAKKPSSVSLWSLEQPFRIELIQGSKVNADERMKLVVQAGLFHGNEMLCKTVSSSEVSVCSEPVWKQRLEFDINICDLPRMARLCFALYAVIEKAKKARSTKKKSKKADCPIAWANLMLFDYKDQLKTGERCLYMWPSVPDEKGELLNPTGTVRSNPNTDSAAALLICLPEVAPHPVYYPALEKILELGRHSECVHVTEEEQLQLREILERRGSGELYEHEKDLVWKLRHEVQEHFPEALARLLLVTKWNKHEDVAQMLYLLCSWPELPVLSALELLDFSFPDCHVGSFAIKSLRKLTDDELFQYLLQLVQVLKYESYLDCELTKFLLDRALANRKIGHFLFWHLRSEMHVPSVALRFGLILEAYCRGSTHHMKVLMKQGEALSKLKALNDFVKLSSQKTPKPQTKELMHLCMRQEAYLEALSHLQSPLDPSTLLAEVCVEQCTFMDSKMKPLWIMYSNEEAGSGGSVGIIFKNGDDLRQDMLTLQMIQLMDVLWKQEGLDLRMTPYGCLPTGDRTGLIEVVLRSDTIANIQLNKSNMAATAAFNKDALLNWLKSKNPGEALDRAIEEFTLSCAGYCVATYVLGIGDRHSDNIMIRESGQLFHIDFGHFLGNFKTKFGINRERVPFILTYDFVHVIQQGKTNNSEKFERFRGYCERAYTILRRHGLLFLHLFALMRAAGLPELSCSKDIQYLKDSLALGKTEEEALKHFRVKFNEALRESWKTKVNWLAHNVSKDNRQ
PIK3CD/PIK3R1 (p110 delta/p85 alpha), sequence (P27986 whole entry partner): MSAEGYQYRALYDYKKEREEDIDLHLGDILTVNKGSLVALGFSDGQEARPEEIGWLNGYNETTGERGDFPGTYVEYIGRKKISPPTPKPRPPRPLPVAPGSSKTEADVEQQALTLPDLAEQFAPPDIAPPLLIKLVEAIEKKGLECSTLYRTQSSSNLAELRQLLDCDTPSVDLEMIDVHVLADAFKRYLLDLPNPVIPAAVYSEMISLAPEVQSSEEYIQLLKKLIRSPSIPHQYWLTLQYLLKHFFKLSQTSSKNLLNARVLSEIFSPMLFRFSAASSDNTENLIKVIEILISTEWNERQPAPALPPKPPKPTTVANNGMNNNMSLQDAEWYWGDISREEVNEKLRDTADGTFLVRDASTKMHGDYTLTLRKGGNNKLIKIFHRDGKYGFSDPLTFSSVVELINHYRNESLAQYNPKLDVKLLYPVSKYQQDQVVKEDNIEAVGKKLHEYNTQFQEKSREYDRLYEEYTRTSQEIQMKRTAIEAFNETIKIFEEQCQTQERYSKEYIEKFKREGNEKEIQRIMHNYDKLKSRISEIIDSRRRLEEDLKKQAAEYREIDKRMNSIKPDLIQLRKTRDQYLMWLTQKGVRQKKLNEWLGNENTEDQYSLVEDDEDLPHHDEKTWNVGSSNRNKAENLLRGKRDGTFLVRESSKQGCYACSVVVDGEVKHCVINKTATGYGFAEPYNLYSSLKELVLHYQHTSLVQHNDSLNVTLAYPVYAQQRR
In another assay the target is ERBB4 (HER4) (Homo sapiens, UniProt Q15303). The note with it: single concentration 1.0 μM, read-out: percent inhibition. The procedure, abridged:
as §1

The target in the next assay is FGFR1 (Homo sapiens, UniProt P11362). To be noted: single concentration 1.0 μM, read-out: percent inhibition. The procedure, abridged:
as §1

Another assay addresses IGF1R (Homo sapiens, UniProt P08069). To be noted: single concentration 1.0 μM, read-out: percent inhibition. The procedure, abridged: as §1
Another assay has as its target T1, MATK (HYL) (Homo sapiens, UniProt P42679).
T1 sequence (P42679 1-507): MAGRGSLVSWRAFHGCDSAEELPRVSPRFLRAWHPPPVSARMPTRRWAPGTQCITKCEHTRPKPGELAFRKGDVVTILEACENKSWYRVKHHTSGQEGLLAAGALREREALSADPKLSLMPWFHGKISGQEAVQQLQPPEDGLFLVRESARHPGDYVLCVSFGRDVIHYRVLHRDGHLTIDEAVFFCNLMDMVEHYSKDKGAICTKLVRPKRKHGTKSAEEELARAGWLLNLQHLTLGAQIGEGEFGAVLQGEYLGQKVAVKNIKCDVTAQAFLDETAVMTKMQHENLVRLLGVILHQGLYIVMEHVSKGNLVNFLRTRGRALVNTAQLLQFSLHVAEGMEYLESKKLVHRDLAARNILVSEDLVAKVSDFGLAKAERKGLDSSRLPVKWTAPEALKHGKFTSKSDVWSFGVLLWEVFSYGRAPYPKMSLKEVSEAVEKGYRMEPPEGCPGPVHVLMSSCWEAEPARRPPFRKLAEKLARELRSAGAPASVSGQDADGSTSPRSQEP
The note with it: single concentration 1.0 μM, read-out: percent inhibition. The procedure, abridged: as §1

In a further assay the target is T2, BMX (Homo sapiens, UniProt P51813).
T2 sequence (P51813 1-675): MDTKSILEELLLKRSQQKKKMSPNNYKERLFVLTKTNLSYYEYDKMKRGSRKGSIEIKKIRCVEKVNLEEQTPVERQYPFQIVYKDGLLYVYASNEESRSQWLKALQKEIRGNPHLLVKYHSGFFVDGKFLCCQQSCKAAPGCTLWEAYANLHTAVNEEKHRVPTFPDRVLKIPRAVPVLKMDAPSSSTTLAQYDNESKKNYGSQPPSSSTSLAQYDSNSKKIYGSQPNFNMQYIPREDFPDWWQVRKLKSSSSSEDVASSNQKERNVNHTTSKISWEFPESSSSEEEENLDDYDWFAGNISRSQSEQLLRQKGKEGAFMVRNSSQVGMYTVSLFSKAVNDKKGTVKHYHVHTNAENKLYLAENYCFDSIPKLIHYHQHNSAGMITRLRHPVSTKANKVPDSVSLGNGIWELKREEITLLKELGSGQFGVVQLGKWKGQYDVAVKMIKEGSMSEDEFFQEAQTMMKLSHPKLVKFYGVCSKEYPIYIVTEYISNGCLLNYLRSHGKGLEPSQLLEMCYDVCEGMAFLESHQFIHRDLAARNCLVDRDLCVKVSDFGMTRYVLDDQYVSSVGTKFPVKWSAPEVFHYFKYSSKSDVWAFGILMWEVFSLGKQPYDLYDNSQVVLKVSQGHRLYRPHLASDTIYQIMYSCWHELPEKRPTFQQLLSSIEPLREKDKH
The note with it: single concentration 1.0 μM, read-out: percent inhibition. Put shortly: as §1

In a further assay the target is NTRK1 (TRKA) (Homo sapiens, UniProt P04629). To be noted: single concentration 1.0 μM, read-out: percent inhibition. The procedure, abridged:
as §1

The target of the next assay is MAPK8 (JNK1) (Homo sapiens, UniProt P45983). To be noted: single concentration 1.0 μM, read-out: percent inhibition. Put shortly: as §1
In a further assay the target is PIK3C3 (hVPS34) (Homo sapiens, UniProt Q8NEB9). To be noted: single concentration 1.0 μM, read-out: percent inhibition. The procedure, abridged:
as §1

The target in a further assay is FYN A (Homo sapiens, UniProt P06241). To be noted: single concentration 1.0 μM, read-out: percent inhibition. Put shortly: as §1
FYN A, sequence (P06241 whole entry): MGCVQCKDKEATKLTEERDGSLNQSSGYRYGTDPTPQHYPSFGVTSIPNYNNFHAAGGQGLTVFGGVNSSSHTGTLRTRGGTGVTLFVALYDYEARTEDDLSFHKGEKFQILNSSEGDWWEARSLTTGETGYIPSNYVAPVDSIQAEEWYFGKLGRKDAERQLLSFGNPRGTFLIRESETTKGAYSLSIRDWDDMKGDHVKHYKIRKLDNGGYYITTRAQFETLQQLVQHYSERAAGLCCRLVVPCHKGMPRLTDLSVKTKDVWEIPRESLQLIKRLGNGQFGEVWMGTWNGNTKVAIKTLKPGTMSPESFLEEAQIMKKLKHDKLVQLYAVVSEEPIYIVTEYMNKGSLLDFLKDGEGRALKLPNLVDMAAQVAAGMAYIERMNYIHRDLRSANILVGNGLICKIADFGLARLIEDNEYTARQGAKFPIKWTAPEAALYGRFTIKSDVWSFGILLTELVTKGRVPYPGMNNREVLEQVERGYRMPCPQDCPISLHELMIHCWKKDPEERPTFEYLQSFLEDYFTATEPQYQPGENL
Another assay deals with KIT (Homo sapiens, UniProt P10721). To be noted: single concentration 1.0 μM, read-out: percent inhibition. The protocol: (§2) Tyrosine kinase inhibition assays were performed at ThermoFisher Life Technologies (Madison, WI, USA) using standard protocols (SelectScreen Biochemical Profiling Service, Thermo Fisher Scientific). ATP concentrations used were at the apparent Km. Test compounds were screened in 1% dimethylsulffoxide (DMSO) (final concentration) in the well. For 10-point titrations, 3-fold serial dilutions were conducted from the starting concentration of […]. All Peptide/Kinase Mixtures were diluted to a 2× working concentration in the appropriate Kinase Buffer. All ATP Solutions were diluted to a 4× working concentration in Kinase Buffer (50 mM HEPES pH 7.5, 0.01% BRIJ-35, 10 mM MgCl2, 1 mM EGTA). The apparent ATP Km was previously determined using a Z′-LYTE assay. The Development Reagent was diluted in Development Buffer.
The inhibition activities of compounds were determined in biochemical assays using single concentration (1.0 μM) measurements. The results were provided as percent inhibition values. […]

Another assay concerns the target MET (cMet) (Homo sapiens, UniProt P08581). To be noted: for inhibition at 1 µM: single concentration 1.0 μM, read-out: percent inhibition; for IC50: read-out: IC50 of compound. The protocol: as §2
The inhibition activities of compounds were determined in biochemical assays using single concentration (1.0 μM) measurements. The results were provided as percent inhibition values.

JAK1, sequence (P23458 whole entry): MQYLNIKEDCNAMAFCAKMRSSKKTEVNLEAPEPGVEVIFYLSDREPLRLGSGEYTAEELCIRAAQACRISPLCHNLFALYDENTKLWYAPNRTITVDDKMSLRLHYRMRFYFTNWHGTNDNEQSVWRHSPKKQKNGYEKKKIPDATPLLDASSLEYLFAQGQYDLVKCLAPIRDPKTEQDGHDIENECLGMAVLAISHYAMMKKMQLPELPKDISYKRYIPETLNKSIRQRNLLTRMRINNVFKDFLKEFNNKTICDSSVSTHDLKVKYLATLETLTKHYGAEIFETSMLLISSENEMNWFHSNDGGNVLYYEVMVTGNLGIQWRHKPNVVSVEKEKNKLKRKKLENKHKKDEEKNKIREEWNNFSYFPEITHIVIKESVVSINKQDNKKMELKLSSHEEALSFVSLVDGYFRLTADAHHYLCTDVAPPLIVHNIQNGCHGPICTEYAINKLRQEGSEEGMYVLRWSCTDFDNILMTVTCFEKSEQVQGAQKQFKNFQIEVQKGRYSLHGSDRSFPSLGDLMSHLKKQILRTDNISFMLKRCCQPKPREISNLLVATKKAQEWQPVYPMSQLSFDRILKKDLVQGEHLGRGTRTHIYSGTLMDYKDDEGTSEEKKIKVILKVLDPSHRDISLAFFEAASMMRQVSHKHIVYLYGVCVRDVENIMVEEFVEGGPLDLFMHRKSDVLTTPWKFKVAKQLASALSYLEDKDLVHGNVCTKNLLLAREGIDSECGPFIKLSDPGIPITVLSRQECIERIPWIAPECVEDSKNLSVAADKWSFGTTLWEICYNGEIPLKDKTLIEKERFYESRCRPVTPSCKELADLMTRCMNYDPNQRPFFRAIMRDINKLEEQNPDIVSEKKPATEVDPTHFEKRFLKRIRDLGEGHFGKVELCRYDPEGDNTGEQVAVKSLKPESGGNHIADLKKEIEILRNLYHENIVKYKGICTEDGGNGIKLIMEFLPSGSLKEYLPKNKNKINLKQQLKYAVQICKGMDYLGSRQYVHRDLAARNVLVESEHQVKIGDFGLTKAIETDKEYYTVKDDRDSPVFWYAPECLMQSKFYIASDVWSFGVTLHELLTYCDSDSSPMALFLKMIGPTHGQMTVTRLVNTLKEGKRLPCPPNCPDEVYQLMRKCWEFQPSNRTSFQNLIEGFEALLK
AKT1 (PKB alpha), sequence (P31749 whole entry): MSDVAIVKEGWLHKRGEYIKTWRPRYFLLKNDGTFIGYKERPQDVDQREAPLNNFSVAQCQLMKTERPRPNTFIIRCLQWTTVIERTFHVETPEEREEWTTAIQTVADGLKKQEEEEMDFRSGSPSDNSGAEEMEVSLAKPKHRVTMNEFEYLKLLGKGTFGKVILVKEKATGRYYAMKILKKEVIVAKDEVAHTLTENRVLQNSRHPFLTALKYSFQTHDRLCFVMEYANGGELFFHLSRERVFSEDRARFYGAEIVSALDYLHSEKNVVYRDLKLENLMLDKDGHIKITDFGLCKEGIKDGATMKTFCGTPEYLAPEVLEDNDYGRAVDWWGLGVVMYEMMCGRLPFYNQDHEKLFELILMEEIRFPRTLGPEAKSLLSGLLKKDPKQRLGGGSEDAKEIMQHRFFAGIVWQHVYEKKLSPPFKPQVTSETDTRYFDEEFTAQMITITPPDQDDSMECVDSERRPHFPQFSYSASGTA
PIK3C3 (hVPS34), sequence (Q8NEB9 whole entry): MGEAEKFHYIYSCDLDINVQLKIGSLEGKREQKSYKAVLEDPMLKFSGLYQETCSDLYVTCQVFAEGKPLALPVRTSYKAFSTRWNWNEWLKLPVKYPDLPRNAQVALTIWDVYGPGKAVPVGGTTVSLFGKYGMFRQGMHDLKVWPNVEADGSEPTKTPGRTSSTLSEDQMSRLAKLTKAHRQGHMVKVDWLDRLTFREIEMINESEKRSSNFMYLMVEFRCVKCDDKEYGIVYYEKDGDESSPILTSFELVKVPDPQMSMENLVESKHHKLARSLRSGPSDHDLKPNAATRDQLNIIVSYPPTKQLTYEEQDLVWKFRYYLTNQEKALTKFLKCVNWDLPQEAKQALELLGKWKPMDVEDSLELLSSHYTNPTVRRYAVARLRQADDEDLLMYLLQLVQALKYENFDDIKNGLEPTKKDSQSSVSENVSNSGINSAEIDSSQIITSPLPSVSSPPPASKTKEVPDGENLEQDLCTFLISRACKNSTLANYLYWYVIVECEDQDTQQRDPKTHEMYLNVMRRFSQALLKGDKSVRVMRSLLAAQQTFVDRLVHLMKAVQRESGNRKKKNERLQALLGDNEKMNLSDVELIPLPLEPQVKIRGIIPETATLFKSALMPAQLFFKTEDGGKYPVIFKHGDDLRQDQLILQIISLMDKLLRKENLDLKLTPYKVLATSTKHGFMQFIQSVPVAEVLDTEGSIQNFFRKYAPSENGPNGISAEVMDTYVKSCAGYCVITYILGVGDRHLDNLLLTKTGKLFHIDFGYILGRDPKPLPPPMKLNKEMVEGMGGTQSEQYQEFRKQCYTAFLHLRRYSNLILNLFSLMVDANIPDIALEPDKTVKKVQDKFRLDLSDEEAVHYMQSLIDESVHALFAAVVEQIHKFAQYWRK

A word on the inhibition: it is the relative decrease from the control value, in per cent. For `COc1cc2nccc(Oc3ccc(NC(=O)C4(C(=O)Nc5ccc(F)cc5)CC4)cc3)c2cc1OC` [Cabozantinib, reference compound], the inhibition at 1 µM on AKT1 (PKB alpha) was 3%; on JAK1, 0%; in assay [1] it was -1%; on ERBB4 (HER4), 35%; at FGFR1, 12%; at IGF1R it was 15%. Also, the inhibition at 1 µM is 10% on MATK (HYL); 36% at BMX; 98% on NTRK1 (TRKA); -2% on MAPK8 (JNK1); 0% at PIK3C3 (hVPS34); 74% at FYN A.

As to `COc1cc2nccc(Oc3ccc(NC(=O)C4(NC(=O)c5ccc(F)cc5)CC4)cc3F)c2cc1OC` [Cbo-02, N-(1-((4-((6,7-diMethoxyquinolin-4-yl)oxy)-3-fluorophenyl)carbamoyl)cyclopropyl)-4-fluorobenzamide], the inhibition at 1 µM at AKT1 (PKB alpha) was 2%; at JAK1, 1%; in assay [1], -6%; at ERBB4 (HER4), 31%; on FGFR1 it was 3%; at IGF1R, 13%. The inhibition at 1 µM at MATK (HYL) worked out at 7%; on BMX, 22%; on NTRK1 (TRKA), 58%; at MAPK8 (JNK1), 5%; at PIK3C3 (hVPS34) it was 1%; at FYN A it was 30%. Besides, the inhibition at 1 µM is 33% at KIT and 100% on MET (cMet).

Take `COc1cc2nccc(Oc3ccc(NC(=O)C4(NC(=O)c5ccc(F)cc5)CC4)cc3F)c2cc1Oc1ccc(N)cc1F` [Cbo-10]: the inhibition at 1 µM was 0% at AKT1 (PKB alpha); 2% at JAK1; 12% in assay [1]; 94% at ERBB4 (HER4); 1% at FGFR1; 27% at IGF1R. Moreover, the inhibition at 1 µM on MATK (HYL) was 5%; on BMX it was 33%; at NTRK1 (TRKA), 80%; on MAPK8 (JNK1), 32%; on PIK3C3 (hVPS34) it was -5%; on FYN A it was 47%. Besides, the inhibition at 1 µM on KIT is 48%; at MET (cMet), 95%.

Turning to `COc1cc2nccc(Oc3ccc(NC(=O)C4(NC(=O)c5ccc(F)cc5)CC4)cc3F)c2cc1Oc1c(F)cc(N)cc1F` [Cbo-14], the inhibition at 1 µM on AKT1 (PKB alpha) came to 2%; at JAK1, 1%; in [1] it was 16%; at ERBB4 (HER4) it was 93%; at FGFR1, 5%; on IGF1R it was 35%. Further, the inhibition at 1 µM on MATK (HYL) is 8%; at BMX, 42%; at NTRK1 (TRKA) it was 71%; at MAPK8 (JNK1), 41%; on PIK3C3 (hVPS34), 6%; at FYN A, 57%. In addition, the inhibition at 1 µM is 45% at KIT and 97% at MET (cMet).

By IC50 is commonly meant the concentration that gives 50% inhibition. Take `COc1cc2nccc(Oc3ccc(NC(=O)C4(C(=O)Nc5ccc(F)cc5)CC4)cc3F)c2cc1Oc1ccc(N)cc1F` [Cbo-23]: the inhibition at 1 µM on AKT1 (PKB alpha) came to 4%; on JAK1, 4%; in assay [1], 2%; at ERBB4 (HER4), 72%; on FGFR1 it was 27%; on IGF1R, 52%. The inhibition at 1 µM on MATK (HYL) is 8%; on BMX, 42%; at NTRK1 (TRKA) it was 97%; at MAPK8 (JNK1), -2%; at PIK3C3 (hVPS34), -4%; at FYN A, 70%. The inhibition at 1 µM was determined as 51% on KIT and 98% on MET (cMet). For the same molecule, the IC50 on MET (cMet) was determined as 35.2 nM.

For `CNC(=O)c1cc2c(Oc3ccc(NC(=O)C4(C(=O)Nc5ccc(F)cc5)CC4)cc3)ccnc2cc1OC` [Zanzalintinib, reference compound], at MET (cMet), the IC50 was 4.26 nM.
